What follows are sequences tested on human MART1-specific CD8 T cells (assay: In vitro epitope presentation (MHC I) assay by human dendritic cells). Settings: human monocyte-derived DCs loaded with 1 μM Zxx-MART1 for 4 h; intracellular staining for CD107, IFN-γ and TNF-α.
Format: cell-based
Protocol: Human monocyte-derived DCs were loaded with 1 μM of scramble-MART1, Z13-MART1, Z14-MART1, Z15-MART1 or Z18-MART1 for 4 h, wash and then incubated o.n. at 37° C. Specific TCR-transfected T cells were then added to DCs and incubated for 5 h with monensin and brefeldinA before intracellular FACS staining for CD107, IFN-γ and TNF-α.
In order to assess the capacity of the ZEBRA CPP truncations to promote epitope presentation by human DCs, the following constructs (Z13-MART1, Z14-MART1, Z15-MART1 and Z18-MART1, with each of the Z13, Z14, Z15 and Z18 CPP conjugated to the HLA-A2 epitope of the tumor associated antigen (TAA) MART1)) were synthesized:
These constructs (Z13, Z14, Z15, and Z18 CPPs conjugated to the HLA-A2 epitope of the tumor associated antigen (TAA) MART1) were assessed for their capacity to promote epitope presentation on MHC class I by human DCs. To this purpose, DCs from an HLA-A2+ donor were prepared from elutriated monocytes, cultured in CelIGro DC medium (CellGenix, Freiburg, Germany) with granulocyte-macrophage colony-stimulating factor (GM-CSF; 2500 U/ml) (Leucomax; Schering-Plough, Kenilworth, N.J.) and interleukin-4 (IL-4; 1000 U/ml) (CellGenix). The immature DCs were matured with cytokines: IL-1β (10 ng/ml), IL-6 (1000 U/ml), tumor necrosis factor α (TNFα; 10 ng/ml) (all from CellGenix) and prostaglandin E2 (1 μg/ml) (Sigma-Aldrich). DCs were rested in CellGro DC medium for 2 hours and loaded with 1 μM Scramble-MART1, Z13-MART1, Z14-MART1, Z15-MART-1 or Z18-MART1 for 4 hrs at 37° C. before being washed once and plated at 300 000 cells per well in round-bottomed 96-well plates. Non-peptide loaded DCs were used as a negative control. T cells were expanded from peripheral blood mononuclear cells using Dynabeads ClinExVivo CD3/CD28 (Life Technologies, Oslo, Norway). Expanded T cells (day 10 post activation) were transfected with the DMFS TCR specific for MART1 by mRNA electroporation. T cells were co-incubated with DCs at a ratio of 1:2 for 5 hours in the presence of GolgiPlug and GolgiStop (both BD Biosciences) before intracellular staining was performed using the following antibodies after FcR blocking; CD4 (RPAT4), CD8 (RPAT8), CD107a (H4A3) (BD Biosciences), IFN-γ (4S.B3) and TNF-α (MAb11) (BD Biosciences), all from eBioscience except where noted. Fixation and permabilization was performed using the PerFix kit from Beckman Coulter according to manufacturer's instructions. Cells were analysed using an LSR II flow cytometer (BD Biosciences) and results were processed with Kaluza (Beckman Coulter) software. All conditions were tested in duplicate, and the experiment was repeated up to three times.

Sequence	stimulation of human MART1-specific CD8 T cells
KRYKNRVASRKSRAKFKQLLQHYREVAAAKSSENDRLRLLLK [Z13]	particularly efficacious
KRYKNRVASRKSRAKFKQLLQHYREVAAAK [Z14]	particularly efficacious
REVAAAKSSENDRLRLLLK [Z18]	markedly less efficient
KRYKNRVASRKSRAKFK (CPP Z15) [ZEBRA CPP truncation]	particularly efficacious
